From article PMC6328428, “Synthesis, Urease Inhibition and Molecular Modelling Studies of Novel Derivatives of the Naturally Occurring β-Amyrenone” (Natural Products and Bioprospecting, 2018)

Experiments:
Jack bean Urease = target: T1, Jack bean Urease (Canavalia ensiformis, UniProt P07374); assay: biochemical
T1 construct: purchased Sigma
Experimental: Urease activity was obtained by measuring ammonia production using the indophenol method as described by Bankeu et al., (2017). […] Reaction mixtures with 25 μL of enzyme (Jack bean Urease bought from Sigma) solution and 55 μL of buffers containing 100 mM urea were incubated with 5 μL of compounds 1—4 (1 mM concentration) at 30 °C for 15 min in 96-well plates. In fact, 45 μL each of phenol reagent (1% w/v phenol and 0.005% w/v sodium nitroprusside) and 70 μL of alkali reagent (0.5% w/v NaOH and 0.1% active chloride NaOCl) were added to each well. The absorbance at 630 nm was recorded after 50 min, using a microplate reader (Molecular Device, USA). All reactions were performed in triplicate in a final volume of 200 μL. The results (change in absorbance per min) were processed by using Soft Max Pro software (Molecular Device, USA). All the assays were performed at pH 8.2 (0.01 M K2HPO4·3H2O, 1 mM EDTA and 0.01 M LiCl). Percentage inhibitions were calculated from the formula (Eq. 1):1 Urease inhibition%=100-ODtest/ODcontrol×100 where OD stands for optical density.
Urease inhibition percentages were used to determine the concentration that inhibit 50% of urease activity (IC50) using GraphPad Prism 5.0, USA.
The resulting data are shown as mean ± SD of three independent assays. One way one analysis of variance (ANOVA) was carried out for the determination of difference between groups (GraphPad Prism 5.0, USA). […] was considered as significant.

T1 sequence (P07374 whole entry, looked up): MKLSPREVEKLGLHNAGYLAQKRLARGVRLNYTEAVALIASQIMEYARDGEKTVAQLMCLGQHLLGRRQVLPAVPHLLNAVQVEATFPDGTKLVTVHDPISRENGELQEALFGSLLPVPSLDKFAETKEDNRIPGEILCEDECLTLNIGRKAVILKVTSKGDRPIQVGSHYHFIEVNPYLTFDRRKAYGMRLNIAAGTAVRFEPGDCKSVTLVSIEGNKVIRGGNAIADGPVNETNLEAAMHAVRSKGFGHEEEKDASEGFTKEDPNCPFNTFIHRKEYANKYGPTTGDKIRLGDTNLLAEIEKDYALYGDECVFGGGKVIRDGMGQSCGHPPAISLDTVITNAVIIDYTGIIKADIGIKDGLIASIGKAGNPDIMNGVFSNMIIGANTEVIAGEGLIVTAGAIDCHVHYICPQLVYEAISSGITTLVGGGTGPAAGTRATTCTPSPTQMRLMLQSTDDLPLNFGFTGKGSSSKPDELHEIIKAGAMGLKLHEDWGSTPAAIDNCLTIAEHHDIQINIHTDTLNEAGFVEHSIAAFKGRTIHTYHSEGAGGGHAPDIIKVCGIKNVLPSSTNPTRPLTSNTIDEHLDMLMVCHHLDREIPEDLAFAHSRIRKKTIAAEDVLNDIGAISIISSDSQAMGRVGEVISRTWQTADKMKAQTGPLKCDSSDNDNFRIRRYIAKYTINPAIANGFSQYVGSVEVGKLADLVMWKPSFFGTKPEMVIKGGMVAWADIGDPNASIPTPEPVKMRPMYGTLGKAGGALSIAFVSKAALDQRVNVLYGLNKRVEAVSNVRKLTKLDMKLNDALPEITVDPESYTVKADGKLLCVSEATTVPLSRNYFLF

Row | Structure (SMILES) | IC50 (Jack bean Urease) [µM] | melting point [°C]
1 | CC1(C)CC[C@]2(C)CC[C@]3(C)C(=CCC4[C@@]5(C)Cc6c([nH]c7ccccc67)C(C)(C)[C@@H]5CC[C@]43C)[C@H]2C1 (stereo partly drawn) [Compound 4, (4aR,6aS,6bR,8aR,15aR,17bS)-2,2,4a,6a,6b,9,9,15a-Octamethyl-2,3,4,4a,5,6,6a,6b,7,8,8a,9,10,15,15a,15b,16,17b-octadecahydro-1H-chryseno[2,1-b]carbazole] | 17.9 ± 0.45 | –
2 | CC1(C)CCC2(C)CCC3(C)C(=CCC4C5(C)CC/C(=N\Nc6ccc([N+](=O)[O-])cc6[N+](=O)[O-])C(C)(C)C5CCC43C)C2C1 (centres unmarked) [Compound 2, (E)-1-(2,4-Dinitrophenyl)-2-(4,4,6a,6b,8a,11,11,14b-octamethyl-1,4,4a,5,6,6a,6b,7,8,8a,9,10,11,12,12a,14,14a,14b-octadecahydropicen-3(2H)-ylidene)hydrazine] | 24.6 ± 0.17 | 260
3 | COc1ccc2[nH]c3c(c2c1)C[C@]1(C)C2CC=C4[C@H]5CC(C)(C)CC[C@]5(C)CC[C@@]4(C)[C@]2(C)CC[C@H]1C3(C)C (stereo partly drawn) [Compound 3, (4aR,6aS,6bR,8aR,15aR,17bS)-13-Methoxy-2,2,4a,6a,6b,9,9,15a-octamethyl-2,3,4,4a,5,6,6a,6b,7,8,8a,9,10,15,15a,15b,16,17b-octadecahydro-1H-chryseno[2,1-b]carbazole] | 22.2 ± 0.9 | –
4 | CC1(C)CC[C@]2(C)CC[C@]3(C)C(=CCC4[C@@]5(C)CCC(=O)C(C)(C)[C@@H]5CC[C@]43C)[C@H]2C1 (stereo partly drawn) [Compound 1, β-Amyrenone] | 14.5 ± 0.21 | –
